We go through 52 compounds from US20260234144A1 (TAY THERAPEUTICS LIMITED, priority 2023, published 2026).

Each structure is given as a SMILES string.

The test system of this experiment is R223X stop codon in the mutated luciferase gene, ADXC8 luciferase reporter cell line. Put plainly: cells. The class given is cell-based. The note with it: ADXC8 cells, 24 hours; for Emax / EC (100% of 200 uM G418 response): 24 h; for Emax: read-out: Fold Over Control, maximum fold response relative to 200 μM G418; for EC (100% of 200 uM G418 response): read-out: pC100%, negative logarithm of the concentration giving the same response as 200 μM G418; for pC100%: negative logarithm of the concentration giving the same response as 200 μM G418.

On to `Cc1cc(C)c2c(N)nc(NCCN3CCOCC3)nc2n1` [Example 173], for which the Emax fell in the range of 0 to 100% and the EC (100% of 200 uM G418 response) was above 31.6 µM.

For `CN1CCC(Nc2nc(N(C)C)c3cccnc3n2)CC1` [Example 40, N^4,N^4-dimethyl-N^2-(1-methylpiperidin-4-yl)pyrido[2,3-d]pyrimidine-2,4-diamine], the Emax lay within 100 to 3000% and the EC (100% of 200 uM G418 response) lay within 10 to 100 µM.

In the case of `Cc1c2c(nc3nc(NC4CCN(Cc5ccccc5B(O)O)CC4)nc(N)c13)CCC2` [Example 670], the Emax lay within 100 to 3000% and the EC (100% of 200 uM G418 response) fell in the range of 0.1 to 1 µM.

Turning to `Cc1cc(C)c2c(N)nc(NCCN3CC4(COC4)C3)nc2n1` [Example 30, N^2-(2-(2-oxa-6-azaspiro[3.3]heptan-6-yl)ethyl)-5,7-dimethylpyrido[2,3-d]pyrimidine-2,4-diamine], the Emax fell in the range of 100 to 3000% and the EC (100% of 200 uM G418 response) was in the range of 10 to 100 µM.

With `CN1CCC(Nc2nc(N)c3ccc(-c4ccccc4CO)nc3n2)CC1` [Example 89], the EC (100% of 200 uM G418 response) fell in the range of 10 to 100 µM.

As to `CN1CCC(Nc2nc(N)c3ccc(-c4ccc(C(=O)N(C)C)cc4)nc3n2)CC1` [Example 71], the Emax lay in the range of 0 to 100% and the EC (100% of 200 uM G418 response) was above 100 µM.

Consider `Nc1nc(NC23CCN(CC2)CC3)nc2nc(-c3ccccc3)c3c(c12)CCC3` [Example 127, 6-phenyl-N^3-(quinuclidin-4-yl)-8,9-dihydro-7H-cyclopenta[4,5]pyrido[2,3-d]pyrimidine-1,3-diamine], for which the Emax is 100 to 3000% and the EC (100% of 200 uM G418 response) was in the range of 0.1 to 1 µM.

In the case of `Cc1cc(C)c2c(N)nc(NC3CC4CNCC4C3)nc2n1` (stereo not shown) [Example 205], the Emax was 100 to 3000% and the EC (100% of 200 uM G418 response) lay in the range of 1 to 10 µM.

For the compound `CNc1nc(N[C@H]2CNCC[C@H]2O)nc2nc(C)cc(C)c12` [Example 606], the EC (100% of 200 uM G418 response) was 1 to 10 µM.

Consider `Cc1cc(C)c2c(N)nc(N[C@H]3CN4CCC3CC4)nc2n1` [Example 198], for which the Emax lay in the range of 0 to 100% and the EC (100% of 200 uM G418 response) is above 31.6 µM.

On to `Cc1cc(C)c2c(NC3CC3)nc(N[C@@H]3CCNC3)nc2n1` [Example 332], for which the Emax is 100 to 3000% and the EC (100% of 200 uM G418 response) lay in the range of 1 to 10 µM.

In the case of `CNc1nc(N[C@@H]2CN(C)C[C@@H]2O)nc2nc3c(c(C)c12)CCC3` [Example 658], the Emax fell in the range of 100 to 3000% and the EC (100% of 200 uM G418 response) was 1 to 10 µM.

In the case of `Cc1cc(C)c2c(N)nc(N[C@H]3CN(C)C[C@@H]3O)nc2n1` [Example 226, (3S,4S)-4-((4-amino-5,7-dimethylpyrido[2,3-d]pyrimidin-2-yl)amino)-1-methylpyrrolidin-3-ol], the Emax was 100 to 3000% and the EC (100% of 200 uM G418 response) lay within 0.1 to 1 µM.

Regarding `Cc1cc(C)c2c(NC3CCC3)nc(NC3CCN(C)CC3)nc2n1` [Example 321], the Emax was 0 to 100% and the EC (100% of 200 uM G418 response) is above 31.6 µM.

As for `Cc1cc(C)c2c(N)nc(NCC3CCN(C4CC4)C3)nc2n1` (stereo not shown) [Example 157], the Emax was in the range of 100 to 3000% and the EC (100% of 200 uM G418 response) lay in the range of 1 to 10 µM.

As to `Cc1c2c(nc3nc(NC4CCN(Cc5cccc6cc[nH]c56)CC4)nc(N)c13)CCC2` [Example 672], the Emax lay within 100 to 3000% and the EC (100% of 200 uM G418 response) was in the range of 0.01 to 0.1 µM.

Take `CN1CCC(Nc2nc(N)c3cc(Br)cnc3n2)CC1` [Example 20, 6-bromo-N^2-(1-methylpiperidin-4-yl)pyrido[2,3-d]pyrimidine-2,4-diamine]: the Emax lay within 100 to 3000% and the EC (100% of 200 uM G418 response) is 10 to 100 µM.

With `CNc1nc(NC2CCN3CCCC3C2)nc2nc(C)cc(C)c12` (single isomer, unassigned) [Example 443], the Emax was in the range of 100 to 3000% and the pC100% result is recorded as “++ (pC100% > 5.0 ≤ 6.0)”.

On to `CC(O)c1ccc2c(N)nc(NC3CCN(C)CC3)nc2n1` (stereo not shown) [Example 288], for which the Emax lay in the range of 100 to 3000% and the EC (100% of 200 uM G418 response) lay within 10 to 100 µM.

Consider `Cc1cc(C(C)C)nc2nc(NC3CCN(C)CC3)nc(N)c12` [Example 602], for which the EC (100% of 200 uM G418 response) lay in the range of 1 to 10 µM.

With `Cc1cc(C)c2c(N)nc(NC3(CO)CCNCC3)nc2n1` [Example 207], the Emax was in the range of 0 to 100% and the EC (100% of 200 uM G418 response) was above 31.6 µM.

For the compound `CNc1nc(N[C@@H]2CCCN(Cc3ccccc3)C2)nc2nc(C)cc(C)c12` [Example 399], the Emax lay within 100 to 3000% and the EC (100% of 200 uM G418 response) lay within 1 to 10 µM.

As to `CNc1nc(NC2C3CNC2C3)nc2nc(C)cc(C)c12` (single isomer, unassigned) [Example 446], the pC100% result is given as “++ (pC100% > 5.0 ≤ 6.0)”.

For `CNC(=O)c1cccc(CN2CCC(Nc3nc(N)c4c(C)cc(C)nc4n3)CC2)c1` [Example 477], the Emax was in the range of 100 to 3000% and the EC (100% of 200 uM G418 response) was in the range of 10 to 100 µM.

On to `CN1CCC(Nc2nc(N)c3ccc(-c4ccc(F)c(F)c4)nc3n2)CC1` [Example 108], for which the EC (100% of 200 uM G418 response) was in the range of 1 to 10 µM.

On to `Cc1cc(C)c2c(N)cc(NCCCN3CCOCC3)nc2n1` [Example 300], for which the Emax lay in the range of 100 to 3000% and the EC (100% of 200 uM G418 response) is 1 to 10 µM.

On to `Cc1cc(C)c2c(N)nc(NCCN3CC(C(F)(F)F)C3)nc2n1` [Example 166], for which the Emax lay in the range of 100 to 3000% and the EC (100% of 200 uM G418 response) is 10 to 100 µM.

With `Cc1cc(C)c2c(N)nc(NC3CCN(Cc4c(Cl)cccc4Cl)CC3)nc2n1` [Example 470], the Emax fell in the range of 100 to 3000% and the EC (100% of 200 uM G418 response) is 1 to 10 µM.

Regarding `CNc1nc(N[C@H]2CNC[C@@H]2F)nc2nc(C)cc(C)c12` [Example 334], the EC (100% of 200 uM G418 response) is 1 to 10 µM.

With `CNc1nc(N[C@@H]2CCN(C)C2)nc2nc(C)cc(OC)c12` [Example 631], the Emax was 100 to 3000% and the EC (100% of 200 uM G418 response) was 1 to 10 µM.

Turning to `CNc1nc(N[C@@H]2C[C@H](C)N(C)C2)nc2nc(C)cc(C)c12` [Example 367], the EC (100% of 200 uM G418 response) was 1 to 10 µM.

As to `CNc1nc(N[C@H]2CNC[C@H](O)C2)nc2nc(C)cc(C)c12` [Example 611], the EC (100% of 200 uM G418 response) fell in the range of 0.1 to 1 µM.

For `COc1ccccc1CN1CCC(Nc2nc(N)c3c(C)cc(C)nc3n2)CC1` [Example 426, N^2-(1-(2-methoxybenzyl)piperidin-4-yl)-5,7-dimethylpyrido[2,3-d]pyrimidine-2,4-diamine], the Emax lay within 100 to 3000% and the EC (100% of 200 uM G418 response) was in the range of 1 to 10 µM.

With `[2H]C([2H])([2H])Nc1nc(N[C@H]2CNC[C@@H]2O)nc2nc3c(c(C)c12)CCC3` [Example 563], the EC (100% of 200 uM G418 response) lay within 0.1 to 1 µM.

Take `CN1CCC(Nc2nc(N)c3ccc(-c4cccc(C(=O)N(C)C)c4)nc3n2)CC1` [Example 86]: the Emax was 0 to 100% and the EC (100% of 200 uM G418 response) was above 100 µM.

As to `CC(=O)Nc1ccc(-c2ccc3c(N)nc(NC4CCN(C)CC4)nc3n2)cc1` [Example 73], the Emax is 0 to 100% and the EC (100% of 200 uM G418 response) is above 100 µM.

As for `CNc1c(C)c(NCCCN(C)C)nc2nc(C)cc(C)c12` [Example 522, N^2-(3-(dimethylamino)propyl)-N^4,3,5,7-tetramethyl-1,8-naphthyridine-2,4-diamine], the Emax fell in the range of 0 to 100% and the EC (100% of 200 uM G418 response) is above 31.6 µM.

As to `Cc1c2c(nc3nc(NC4CCN(Cc5cccc(C(=O)O)c5)CC4)nc(N)c13)CCC2` [Example 674], the Emax is 0 to 100% and the EC (100% of 200 uM G418 response) is above 31.6 µM.

Take `CN(C)Cc1cccc(-c2ccc3c(N)nc(NC4CCN(C)CC4)nc3n2)c1` [Example 76]: the Emax was 100 to 3000% and the EC (100% of 200 uM G418 response) was 10 to 100 µM.

On to `CNc1nc(N[C@H]2CCCN(C)C2)nc2nc(C)cc(C)c12` [Example 384], for which the Emax fell in the range of 100 to 3000% and the EC (100% of 200 uM G418 response) was 1 to 10 µM.

For `Cc1cc(C)c2c(N)nc(N[C@H]3CN[C@@H](C)C3)nc2n1` [Example 350], the Emax lay in the range of 100 to 3000% and the EC (100% of 200 uM G418 response) fell in the range of 1 to 10 µM.

For `Cc1cc(C)c2c(N)nc(NC3CC4CCC[C@H](C3)N4)nc2n1` (stereo partly shown) [Example 196], the Emax was 100 to 3000% and the EC (100% of 200 uM G418 response) lay in the range of 1 to 10 µM.

With `COCc1ccc(CN2CCC(Nc3nc(N)c4c(C)cc(C)nc4n3)CC2)cc1` [Example 488], the Emax fell in the range of 100 to 3000% and the EC (100% of 200 uM G418 response) fell in the range of 1 to 10 µM.

Take `Cc1nc2nc(NC3CCN(Cc4ccc(C#N)cc4)CC3)nc(N)c2c2c1CCC2` [Example 554]: the Emax was in the range of 100 to 3000% and the EC (100% of 200 uM G418 response) is 0.1 to 1 µM.

`Cc1cc(C)c2c(N)nc(NCC3CCCN(C)C3)nc2n1` (stereo not shown) [Example 174]: the Emax fell in the range of 100 to 3000% and the EC (100% of 200 uM G418 response) lay in the range of 10 to 100 µM.

On to `Cc1ccnc2nc(NC3CCN(C)CC3)nc(N)c12` [Example 2, 5-methyl-N^2-(1-methylpiperidin-4-yl)pyrido[2,3-d]pyrimidine-2,4-diamine], for which the Emax fell in the range of 100 to 3000% and the EC (100% of 200 uM G418 response) fell in the range of 10 to 100 µM.

With `CN1CCC(Nc2nc(N)c3ccc(OC4CCC4)nc3n2)CC1` [Example 33, 7-cyclobutoxy-N^2-(1-methylpiperidin-4-yl)pyrido[2,3-d]pyrimidine-2,4-diamine], the Emax was 100 to 3000% and the EC (100% of 200 uM G418 response) lay in the range of 10 to 100 µM.

For the compound `CNc1nc(NC2CCN(Cc3ccc(C#N)cc3)CC2)nc2nc(C)cc(C)c12` [Example 580], the Emax fell in the range of 100 to 3000% and the EC (100% of 200 uM G418 response) lay in the range of 1 to 10 µM.

For `Cc1c2c(nc3nc(NC4CCN(Cc5cn[nH]c5)CC4)nc(N)c13)CCC2` [Example 661], the Emax was 100 to 3000% and the EC (100% of 200 uM G418 response) lay in the range of 1 to 10 µM.

For the compound `CNc1nc(N[C@@H]2C[C@@H](C)N(C)C2)nc2nc(C)cc(C)c12` [Example 375], the Emax is 100 to 3000% and the EC (100% of 200 uM G418 response) was 0.1 to 1 µM.

For the compound `Cc1cc(C)c2c(N)nc(NC[C@@H]3CCNC3)nc2n1` [Example 217], the EC (100% of 200 uM G418 response) lay within 1 to 10 µM.

Turning to `CNc1cc(N[C@@H]2CCN(C)C2)nc2nc(C)cc(C)c12` [Example 515, (R)—N^4,5,7-trimethyl-N^2-(1-methylpyrrolidin-3-yl)-1,8-naphthyridine-2,4-diamine], the Emax fell in the range of 100 to 3000% and the EC (100% of 200 uM G418 response) was in the range of 1 to 10 µM.
